Assay results: US8304452B2, “Radical scavenger and active oxygen eliminating agent” (InBiotex Inc., priority 2005, dated 2012)

Tested on: human LDL
Experiment: Lipid peroxide-suppressing action: CuSO4-induced LDL oxidation, TBARS assay (Example 1)
Format: biochemical
Details: 0.2 mg/mL LDL + 5 μM CuSO4, 37° C., 3 hours, mean, n=2
Protocol: As an action of capturing free group (free radical-scavenging action), the effect of N-β-alanyl-5-S-glutathionyl-3,4-dihydroxyphenylalanine (5-S-GAD) on LDL oxidation was examined. As controls, dopamine and Carnosine (under trade name; N-acetylcarnosine as the ingredient name) used as eye drops for cataract were used. LDL was prepared by a fractionation and centrifugation method. A fraction at a specific gravity of 1.019 to 1.063 g/mL in serum was defined as human LDL. 5 μM CuSO4, 5-S-GAD (3 to 100 μM) and N-acetyl-carnosine (100 μM to 10 mM) or L-carnosine (10 μM to 10 mM) were added to 0.2 mg/mL LDL, for incubation at 37° C. for 3 hours. After termination of the incubation, TBARS (a substance reactive with thiobarbituric acid) was assayed. Although the TBA reaction is a non-specific reaction, the reaction is used for a method of assaying various lipid peroxide products including malone dialdehyde. An experiment of peroxidation with copper sulfate was done twice (N=2). An aqueous solution containing 3.75 mg/mL thiobarbituric acid (TBA), 150 mg/mL trichloroacetic acid (TCA) and 0.25 N hydrochloric acid (HCl) was prepared as the TBA reagent, while tetramethoxypropane was used to prepare standard solutions (2, 5, 10, 20, 40 μM). 100 μL each of an LDL sample or a standard solution was added together with 200 μL of the TBA reagent into an Eppendorf tube (1.5 mL), which was then sealed with a cap for thorough mixing. After heating at 95° C. for 15 minutes, the resulting mixture was cooled in water and centrifuged at 3000 rpm for 5 minutes. The supernatant was assayed of the absorbance (535 nm). Based on the absorbance of the standard solutions, a standard curve was prepared. Based on the standard curve, the amount of TBARS in the LDL sample was calculated (in nmol/mg LDL protein) (mean, n=2, see Table 1 and FIG. 1).

## NCCc1ccc(O)c(O)c1 [dopamine, reference compound]
10 μM added
  Amount of TBARS: 58.853 nmol/mg LDL protein
30 μM added
  Amount of TBARS: 4.454 nmol/mg LDL protein
100 μM added
  Amount of TBARS: 4.208 nmol/mg LDL protein
